{"source": "patent US20230159546A1", "about": "“NOVEL SPIROPYRROLIDINE DERIVED ANTIVIRAL AGENTS” (Enanta Pharmaceuticals, Inc., priority 2021, published 2023)", "biological_target": "SARS-CoV-2 3CL-protease (Severe acute respiratory syndrome coronavirus 2, UniProt P0DTD1)", "assay": "SARS-CoV-2 3C-like (3CL) protease fluorescence assay (FRET)", "assay_type": "biochemical", "conditions": "recombinant SARS-CoV-2 3CL-protease 10 nM, 30 min preincubation at RT, duplicate; read-out: FRET IC50"}
{"smiles": "N#C[C@@H]1C[C@@]2(CN1C(=O)C(=O)NCCC1CCCCC1)C(=O)Nc1ccccc12", "note": "[Example 155]", "values": [{"measurement": "IC50", "value": "100 to 1000", "unit": "nM"}]}
{"smiles": "N#C[C@@H]1C[C@@]2(CN1C(=O)CC(=O)N[C@H]1CCC[C@@H]1O)C(=O)Nc1ccccc12", "note": "[Example 171]", "values": [{"measurement": "IC50", "value": "> 1000", "unit": "nM"}]}
{"smiles": "CC(C)NS(=O)(=O)N1C[C@]2(C[C@H]1C#N)C(=O)Nc1ccccc12", "note": "[Example 57]", "values": [{"measurement": "IC50", "value": "> 1000", "unit": "nM"}]}
{"smiles": "N#C[C@@H]1C[C@@]2(CN1C(=O)CC(=O)N[C@H]1CC[C@@H](O)C1)C(=O)Nc1ccccc12", "note": "[Example 182]", "values": [{"measurement": "IC50", "value": "> 1000", "unit": "nM"}]}
{"smiles": "N#C[C@@H]1C[C@@]2(CN1C(=O)OCn1cccn1)C(=O)Nc1ccccc12", "note": "[Example 87]", "values": [{"measurement": "IC50", "value": "> 1000", "unit": "nM"}]}
{"smiles": "CC(C)(C(=O)C1CC1)C(=O)N1C[C@]2(C[C@H]1C#N)C(=O)Nc1ccccc12", "note": "[Example 100]", "values": [{"measurement": "IC50", "value": "> 1000", "unit": "nM"}]}
{"smiles": "N#C[C@@H]1C[C@@]2(CN1C(=O)[C@H](Cc1ccccc1)C(=O)c1ccccc1)C(=O)Nc1ccccc12", "note": "[Example 94]", "values": [{"measurement": "IC50", "value": "> 1000", "unit": "nM"}]}
{"smiles": "N#C[C@@H]1C[C@@]2(CN1S(=O)(=O)NC1CC1)C(=O)Nc1ccccc12", "note": "[Example 58]", "values": [{"measurement": "IC50", "value": "> 1000", "unit": "nM"}]}
{"smiles": "N#C[C@@H]1C[C@@]2(CN1C(=O)C(=O)Nc1cnccc1C(F)(F)F)C(=O)Nc1ccccc12", "note": "[Example 176]", "values": [{"measurement": "IC50", "value": "> 1000", "unit": "nM"}]}
{"smiles": "CC(C)NC(=O)C(C)(C)C(=O)N1C[C@]2(C[C@H]1C#N)C(=O)Nc1ccccc12", "note": "[Example 82]", "values": [{"measurement": "IC50", "value": "> 1000", "unit": "nM"}]}
{"smiles": "N#C[C@@H]1C[C@@]2(CN1C(=O)[C@H](Cc1ccccc1)C(=O)NC1CC1)C(=O)Nc1ccccc12", "note": "[Example 116]", "values": [{"measurement": "IC50", "value": "100 to 1000", "unit": "nM"}]}
{"smiles": "N#C[C@@H]1C[C@@]2(CN1C(=O)C(=O)Nc1ccnc(C(F)(F)F)c1)C(=O)Nc1ccccc12", "note": "[Example 167]", "values": [{"measurement": "IC50", "value": "> 1000", "unit": "nM"}]}
{"smiles": "N#C[C@@H]1C[C@@]2(CN1C(=O)OC1CC1)C(=O)Nc1ccccc12", "note": "[Example 69]", "values": [{"measurement": "IC50", "value": "> 1000", "unit": "nM"}]}
{"smiles": "C[C@]1(O)CC[C@H](NC(=O)C(=O)N2C[C@]3(C[C@H]2C#N)C(=O)Nc2ccccc23)CC1", "note": "[Example 177]", "values": [{"measurement": "IC50", "value": "> 1000", "unit": "nM"}]}
{"smiles": "N#C[C@@H]1C[C@@]2(CN1C(=O)CC(=O)N[C@@H]1CC[C@@H](O)C1)C(=O)Nc1ccccc12", "note": "[Example 181]", "values": [{"measurement": "IC50", "value": "> 1000", "unit": "nM"}]}
{"smiles": "N#C[C@@H]1C[C@@]2(CN1S(=O)(=O)c1ccc(F)cc1)C(=O)Nc1ccccc12", "note": "[Example 56]", "values": [{"measurement": "IC50", "value": "> 1000", "unit": "nM"}]}
{"smiles": "N#C[C@@H]1C[C@@]2(CN1S(=O)(=O)C1CCCCC1)C(=O)Nc1ccccc12", "note": "[Example 129]", "values": [{"measurement": "IC50", "value": "> 1000", "unit": "nM"}]}
{"smiles": "N#C[C@@H]1C[C@@]2(CN1C(=O)C(=O)Nc1cncc(C(F)(F)F)c1)C(=O)Nc1ccccc12", "note": "[Example 199]", "values": [{"measurement": "IC50", "value": "> 1000", "unit": "nM"}]}
{"smiles": "N#C[C@@H]1C[C@@]2(CN1C(=O)C(=O)Nc1cccnc1C(F)(F)F)C(=O)Nc1ccccc12", "note": "[Example 165]", "values": [{"measurement": "IC50", "value": "> 1000", "unit": "nM"}]}
{"smiles": "N#C[C@@H]1C[C@@]2(CN1S(=O)(=O)NC1CCCCC1)C(=O)Nc1ccccc12", "note": "[Example 61]", "values": [{"measurement": "IC50", "value": "> 1000", "unit": "nM"}]}
{"smiles": "N#C[C@@H]1C[C@@]2(CN1S(=O)(=O)Nc1ccc3cccnc3c1)C(=O)Nc1ccccc12", "note": "[Example 76]", "values": [{"measurement": "IC50", "value": "> 1000", "unit": "nM"}]}
{"smiles": "N#C[C@@H]1C[C@@]2(CN1C(=O)[C@@H](Cc1ccccc1)C(=O)Nc1ccccc1)C(=O)Nc1ccccc12", "note": "[Example 121]", "values": [{"measurement": "IC50", "value": "> 1000", "unit": "nM"}]}
{"smiles": "N#C[C@@H]1C[C@@]2(CN1C(=O)C(=O)OCc1ccccc1)C(=O)Nc1ccccc12", "note": "[Example 126]", "values": [{"measurement": "IC50", "value": "> 1000", "unit": "nM"}]}
{"smiles": "N#C[C@@H]1C[C@@]2(CN1S(=O)(=O)C1CCCC1)C(=O)Nc1ccccc12", "note": "[Example 128]", "values": [{"measurement": "IC50", "value": "> 1000", "unit": "nM"}]}
{"smiles": "N#C[C@@H]1C[C@@]2(CN1C(=O)C(=O)Nc1ccc(C(F)(F)F)cn1)C(=O)Nc1ccccc12", "note": "[Example 162]", "values": [{"measurement": "IC50", "value": "> 1000", "unit": "nM"}]}
{"smiles": "N#C[C@@H]1C[C@@]2(CN1C(=O)[C@@H](Cc1ccccc1)C(=O)NC1CC1)C(=O)Nc1ccccc12", "note": "[Example 117]", "values": [{"measurement": "IC50", "value": "> 1000", "unit": "nM"}]}
{"smiles": "N#C[C@@H]1C[C@@]2(CN1C(=O)C(=O)NCc1cc(F)c(F)cc1F)C(=O)Nc1ccccc12", "note": "[Example 186]", "values": [{"measurement": "IC50", "value": "> 1000", "unit": "nM"}]}
{"smiles": "N#C[C@@H]1C[C@@]2(CN1C(=O)C(=O)NC1CC1)C(=O)Nc1ccccc12", "note": "[Example 78]", "values": [{"measurement": "IC50", "value": "> 1000", "unit": "nM"}]}
{"smiles": "N#C[C@@H]1C[C@@]2(CN1C(=O)C(=O)NCCc1ccccc1)C(=O)Nc1ccccc12", "note": "[Example 159]", "values": [{"measurement": "IC50", "value": "> 1000", "unit": "nM"}]}
{"smiles": "N#C[C@@H]1C[C@@]2(CN1C(=O)OCc1nccs1)C(=O)Nc1ccccc12", "note": "[Example 86]", "values": [{"measurement": "IC50", "value": "> 1000", "unit": "nM"}]}
{"smiles": "N#C[C@@H]1C[C@@]2(CN1C(=O)C(=O)OC1CCCCC1)C(=O)Nc1ccccc12", "note": "[Example 113]", "values": [{"measurement": "IC50", "value": "100 to 1000", "unit": "nM"}]}
{"smiles": "N#C[C@@H]1C[C@@]2(CN1C(=O)C(=O)NCCCc1ccccc1)C(=O)Nc1ccccc12", "note": "[Example 160]", "values": [{"measurement": "IC50", "value": "100 to 1000", "unit": "nM"}]}
{"smiles": "CCCC(CCC)(CCC)NC(=O)C(=O)N1C[C@]2(C[C@H]1C#N)C(=O)Nc1ccccc12", "note": "[Example 185]", "values": [{"measurement": "IC50", "value": "100 to 1000", "unit": "nM"}]}
{"smiles": "CC(C)(C)OC(=O)N[C@H]1CC[C@@H](NC(=O)C(=O)N2C[C@]3(C[C@H]2C#N)C(=O)Nc2ccccc23)CC1", "note": "[Example 150]", "values": [{"measurement": "IC50", "value": "> 1000", "unit": "nM"}]}
